A short description of data set [1]: Phase I studies of CVC, tolerability. The note with it: single doses up to 900 mg; multiple daily doses up to 400 mg for 10 days. Type of data set: in vivo, human.
The nature of data set [2]: Drug-drug interaction study between TRX and CVC in healthy and healthy but overweight to obese subjects (plasma pharmacokinetics, tolerability). Type of data set: in vivo, human. The note with it: for AUC(0-t) / Cmax: human, plasma, oral, TRX 60 μg. The text has this: This is a single site, randomized, parallel group, 3 arm double-blind, double-dummy study to evaluate the potential drug-drug interaction between TRX and CVC in healthy and healthy but overweight to obese subjects. Healthy and healthy but overweight to obese subjects with body mass index (BMI) up to 32, are included to give a better representation of the NASH patients that will be studied in future clinical studies. The subjects were randomized into 3 arms a) TRX monotherapy, b) CVC monotherapy, and c) TRX and CVC as a combination.
A total of 42 subjects were randomized into the 3 parallel arms receiving single daily doses of TRX, CVC, and TRX+CVC combination.
This study examined doses of 60 μg of tropifexor and 150 mg of CVC given with a standard breakfast.
Pharmacokinetics: Sample collections included time points up to 24 hours after the first (Day 1) and the last (Day 14) doses to establish the AUC0-24 h,Cmax AUC0-24 h,ss and Cmax,ss for TRX, CVC, and TRX+CVC plasma concentration-time profiles.

Data set [3] is described as follows: 1-month combination toxicity study with CVC and TRX. The note with it: CVC 30 mg/kg/day alone. Type of data set: in vivo. How it is done: A 1-month combination toxicity study was performed with cenicriviroc (CVC) (30 mg/kg/day) and tropifexor (TRX) (0.03 mg/kg or 1 mg/kg/day).
The subject of data set [4] is NASH with liver fibrosis. The note with it: cited from earlier work.
For data set [5], the system named is nonalcoholic steatohepatitis. The note with it: cited from earlier work.
Data set [6] is described as follows: Safety in single dose studies of TRX. Type of data set: in vivo, human. To be noted: single dose studies up to 3000 μg. How it is done: (§1) A total of 69 subjects have received TRX at doses ranging from 10 μg to 3000 μg in single or 10 μg to 100 μg in multiple daily doses.
In data set [7] the test system is FXR. The data set is described as follows: FGF19 biomarker in single and multiple dose studies of TRX. Type of data set: in vivo, human. The note with it: single doses 10-3000 μg or multiple daily doses 10-100 μg; 69 subjects. How it is done:
as §1

Where [8] appears, read: Day 1, dosed alone, CVC 150 mg, with standard breakfast, read-out: area under the concentration-time curve (AUC0-24 h).
[9] abbreviates: Day 1, dosed alone, CVC 150 mg, with standard breakfast, read-out: observed peak drug concentration (Cmax).
Where [10] appears, read: Day 14, dosed alone, CVC 150 mg daily, read-out: steady-state AUC0-24 h,ss.
Where [11] appears, read: Day 14, dosed alone, CVC 150 mg daily, read-out: steady-state Cmax,ss.
The mark [12] stands for this setting: NASH adults with liver fibrosis, one year.
Where [13] appears, read: Day 14, TRX 60 μg + CVC 150 mg daily.

“Also recorded” adds a separate entry of the source. Read-outs that look alike come from different tables or passages of the source.

The text below walks through data of patent US20210186950A1, “COMBINATIONS COMPRISING TROPIFEXOR AND CENICRIVIROC” (NOVARTIS AG, priority 2018, published 2021).

For the compound `CCCCOCCOc1ccc(-c2ccc3c(c2)/C=C(/C(=O)Nc2ccc([S@@+]([O-])Cc4cncn4CCC)cc2)CCCN3CC(C)C)cc1` [CVC, (S,E)-8-(4-(2-butoxyethoxy)phenyl)-1-(2-methylpropyl)-N-(4-(((1-propyl-1H-imidazol-5-yl)methyl)sulfinyl)phenyl)-1,2,3,4-tetrahydrobenzo[b]azocine-5-carboxamide], the tolerability result in data set [1] is on record as “generally well-tolerated”. For the same compound, the “accumulation in plasma over the study duration” value in data set [2] (150 mg daily, Day 1 to Day 14) is listed as “accumulated in plasma”. Besides, the “impact of co-administration with TRX on Cmax and AUC0-24 h of CVC” value in data set [2] (CVC 150 mg + TRX 60 μg) is given as “no marked impact”. Moreover, the figures for the AUC(0-t) in data set [2] (setting [8]) and in data set [2] (setting [10]) were 4640 ng·h/mL and 10800 ng·h/mL, respectively. In addition, the Cmax came to 450 ng/mL in data set [2] (setting [9]) and 778 ng/mL in data set [2] (setting [11]). Moreover, the “microscopic findings indicative of toxicity” value in data set [3] was “no microscopic findings indicative of toxicity”. For the same compound, the fibrosis result in data set [4] (setting [12]) is recorded as “reduction of fibrosis”. In addition, in data set [4] (setting [12]), the “improvement of NAS” value is given as “no significant impact”. Besides, the adverse effects result in data set [4] (patients) is given as “can induce fatigue or diarrhea in a small part of the patients”.
With `CC[C@H]1[C@@H](O)[C@@H]2[C@H](CC[C@]3(C)[C@@H]([C@H](C)CCC(=O)O)CC[C@@H]23)[C@@]2(C)CC[C@@H](O)C[C@@H]12` [OCA, obeticholic acid], in data set [5], the “adverse effects on long term administration” value is recorded as “pruritus; also recorded: increased LDL cholesterol”.
For the compound `O=C(O)c1cc(F)c2nc(N3[C@@H]4CC[C@H]3C[C@@H](OCc3c(-c5ccccc5OC(F)(F)F)noc3C3CC3)C4)sc2c1` [TRX, 2-[(1R,3r,5S)-3-({5-cyclopropyl-3-[2-(trifluoromethoxy)phenyl]-1,2-oxazol-4-yl}methoxy)-8-azabicyclo [3.2.1]octan-8-yl]-4-fluoro-1,3-benzothiazole-6-carboxylic acid], the safety concerns result in data set [6] is “No safety concerns”. The “decrease of AUC0-24 h of TRX on co-administration of CVC” value in data set [2] (Day 1, TRX 60 μg + CVC 150 mg) is 32%. Besides, in data set [2] (Day 1, TRX 60 μg + CVC 150 mg), the “decrease of Cmax of TRX on co-administration of CVC” value turned out to be 33%. Besides, in data set [2] (setting [13]), the “reduction of AUC0-24 h,ss of TRX when co-administered with CVC” value is recorded as 35%. In data set [2] (setting [13]), the “reduction of Cmax,ss of TRX when co-administered with CVC” value was 35%. Besides, the values for the AUC(0-t) in data set [2] (setting [8]) and in data set [2] (setting [10]) were 17.9 ng·h/mL and 25.2 ng·h/mL, respectively. Moreover, the Cmax worked out at 1.46 ng/mL in data set [2] (setting [9]) and 1.77 ng/mL in data set [2] (setting [11]). Besides, the “reduction of TRX exposure by co-administration of CVC” value in data set [2] (summary statement, TRX 60 μg + CVC 150 mg) is reported as 32-33%. For the same compound, the “FGF19, biomarker of FXR target engagement in the enterocyte” value in data set [7] is “Dose-dependent increases”.
